Tested on: A549 cells
Assay: Cell cycle distribution by flow cytometry in A549 cells
Format: cell-based, human
Conditions: A549, 2% FBS, 15 μM, after 24 h
Experimental: Referring now to FIG. 5A, SR13904 exerts inhibitory effects on the cell cycle. A representative experiment in which A549 cells were grown in phenol-red-free DMEM+2% charcoal-treated FBS □ SR13904 ([…]). Cells were treated in the exponential phase and assessed by flow cytometry at 24 and 48 h.
Referring now to FIG. 5B, SR13904 treatment arrests A549 cells in the G1 phase of the cell cycle. A549 cells were incubated in 2% FBS (to maintain a high proliferative state) and the cell-cycle profile was determined by flow cytometry after SR13904 treatment (15 μM) for 24 and 48 h, and compared with similar treatment by a control. […] All differences (SR13904-treated vs. vehicle control-treated) were significant; the G1 differences were highly significant (**p=0.001-0.01, ***p=<0.001). The results provide confirming evidence that activated PPARδ increases cell cycle progression through a positive effect on G1-phase cells, and that PPARδ activation upregulates CDK2, CDK4, and cyclin D1 expression patterns.

Cc1cc(SCc2sc(-c3cccc4ccccc34)nc2C)ccc1OCC(=O)O [SR 13904]
fraction of cells in the G1 phase: significantly increased | fraction of cells in the S phase: decreased
